Source: patent publication US20090270419A1, “COMBINATIONS OF CLASS-I SPECIFIC HISTONE DEACETYLASE INHIBITORS WITH PROTEASOME INHIBITORS” (priority 2006, published 2009)

What was measured:
[1] = tested on: p21waf1,cip1 deficient cells as compared to the parental HCT-116 cells; conditions: p21waf1,cip1 deficient cells vs parental HCT-116 cells; cited from earlier work
[2] = tested on: acetylation of histone H3 and H4 and induction of p21waf1,cip1 in A2780 ovarian carcinoma cells; experiment: Acetylation of cellular HDAC 1 substrates and induction of p21waf1,cip1 (Western blot); assay type: cell-based, human; conditions: 24 h, 0-3000 nM tested
Experimental: Total cell lysates were prepared and analysed by SDS-PAGE. Levels of acetylated H3 and H4 histones, total level of H3 proteins and levels p21^waf1, cip1 protein were detected using appropriate dilutions of rabbit polyclonal and mouse monoclonal antibodies, followed by enhanced chemoluminescence (ECL) detection. […] Antibodies were incubated for either 1-2 h at room temperature or overnight at 4° C. […] Protein-antibody complexes were then visualized by chemiluminescence (Pierce Chemical Co) or fluorescence (Odyssey) according to the manufacturer's instructions. The experiments were performed three times.

[3] = tested on: acetylation of tubulin and induction of Hsp 70 in A2780 ovarian carcinoma cells; experiment: Acetylation of tubulin and induction of Hsp 70 (Western blot, HDAC 6 readout); assay type: cell-based, human; conditions: 24 h, 0-3000 nM tested
Experimental: Total cell lysates were prepared and analysed by SDS-PAGE. […] Hsp 70 protein was detected with an antibody from Stressgen (Cat. nr. SPA-810), followed by ECL detection. Appropriate dilutions of antibodies were incubated for either 1-2 h at room temperature or overnight at 4° C. In order to control for equal loading, blots were stripped and re-probed with mouse monoclonal anti-actin IgM (Ab-1, Oncogene Research Products). […] Protein-antibody complexes were then visualized by chemiluminescence (Pierce Chemical Co) or fluorescence (Odyssey) according to the manufacturer's instructions. The experiments were performed three times.

CCRF-CEM = conditions: acute lymphoblastic leukemia, 72 hr, MTS
Experimental: (§1) Tumor cells were grown as cell suspension in the corresponding appropriate culture medium at 37° C. in a humidified 5% CO2 incubator. Mycoplasma-free tumor cells were seeded in 96-well flat-bottom microtitration plates and incubated at 37° C. for 24 hr in culture medium containing 10% FCS. […] Cells were then incubated for an additional 72 hr.

Jurkat clone E6-1 = conditions: Jurkat clone E6-1, acute lymphoblastic leukemia; 72 hr, MTS
Experimental: as §1

KG-1 = conditions: KG-1, acute myelogenous leukemia; 72 hr, MTS
Experimental: as §1

MOLT-4 = conditions: MOLT-4, acute lymphoblastic leukemia; 72 hr, MTS
Experimental: as §1

SUP-B15 = conditions: SUP-B15, acute lymphoblastic leukemia; 72 hr, MTS
Experimental: as §1

HL-60 = conditions: HL-60, acute promyelocytic leukemia; 72 hr, MTS
Experimental: as §1

OCI-AML2 = conditions: OCI-AML2, acute myeloid leukemia; 72 hr, MTS
Experimental: as §1

THP-1 = conditions: THP-1, acute monocytic leukemia; 72 hr, MTS
Experimental: as §1

EHEB = conditions: chronic B cell leukemia, 72 hr, MTS
Experimental: as §1

BV-173 = conditions: BV-173, chronic B cell leukemia; 72 hr, MTS
Experimental: as §1

K-562 = conditions: K-562, chronic myeloid leukemia; 72 hr, MTS
Experimental: as §1

KCL-22 = conditions: KCL-22, chronic myeloid leukemia; 72 hr, MTS
Experimental: as §1

LAMA-84 = conditions: LAMA-84, chronic myeloid leukemia in blast crisis; 72 hr, MTS
Experimental: as §1

U-937 = conditions: U-937, lymphoma; 72 hr, MTS
Experimental: as §1

Daudi = conditions: Burkitt's lymphoma, 72 hr, MTS
Experimental: as §1

Namalwa = conditions: Burkitt's lymphoma, 72 hr, MTS
Experimental: as §1

Raji = conditions: Burkitt's lymphoma, 72 hr, MTS
Experimental: as §1

Ramos = conditions: Burkitt's lymphoma, 72 hr, MTS
Experimental: as §1

ARH-77 = conditions: ARH-77, myeloma; 72 hr, MTS
Experimental: as §1

RPMI 8226 = conditions: RPMI 8226, myeloma; 72 hr, MTS
Experimental: as §1

## CC(/C=C/C(=O)NO)=C\[C@@H](C)C(=O)c1ccc(N(C)C)cc1 [trichostatin A]
[1]
  increase in resistance to the HDAC inhibitor: 6 fold

## Cn1cc(CNCC2CCN(c3ncc(C(=O)NO)cn3)CC2)c2ccccc21 [JNJ 26481585]
[2]
  concentration when induction of acetylation of histone H3 and H4 and induction of p21waf1,cip1 is observed: 10 nM
[3]
  concentration when start of induction of acetylation of tubulin and induction of Hsp 70 is observed: 30 nM

## O=C(NO)c1cnc(N2CCN(S(=O)(=O)c3ccc4ccccc4c3)CC2)nc1 [R306465]
[2]
  concentration when induction of acetylation of histone H3 and H4 and induction of p21waf1,cip1 is observed: 100 nM
[3]
  concentration when start of induction of acetylation of tubulin and induction of Hsp 70 is observed: 1000 nM
CCRF-CEM
  mean IC40 (concentration required to reach 40% inhibition of cell proliferation): 78.79 nM
Jurkat clone E6-1
  mean IC40 (concentration required to reach 40% inhibition of cell proliferation): 56.19 nM
KG-1
  mean IC40 (concentration required to reach 40% inhibition of cell proliferation): 170.59 nM
MOLT-4
  mean IC40 (concentration required to reach 40% inhibition of cell proliferation): 155.83 nM
SUP-B15
  mean IC40 (concentration required to reach 40% inhibition of cell proliferation): 15.67 nM
HL-60
  mean IC40 (concentration required to reach 40% inhibition of cell proliferation): 86.76 nM
OCI-AML2
  mean IC40 (concentration required to reach 40% inhibition of cell proliferation): 267.92 nM
THP-1
  mean IC40 (concentration required to reach 40% inhibition of cell proliferation): 446.29 nM
EHEB
  mean IC40 (concentration required to reach 40% inhibition of cell proliferation): 486.62 nM
BV-173
  mean IC40 (concentration required to reach 40% inhibition of cell proliferation): 26.33 nM
K-562
  mean IC40 (concentration required to reach 40% inhibition of cell proliferation): 80.76 nM
KCL-22
  mean IC40 (concentration required to reach 40% inhibition of cell proliferation): 89.88 nM
LAMA-84
  mean IC40 (concentration required to reach 40% inhibition of cell proliferation): 165.89 nM
U-937
  mean IC40 (concentration required to reach 40% inhibition of cell proliferation): 154.68 nM
Daudi
  mean IC40 (concentration required to reach 40% inhibition of cell proliferation): 454.11 nM
Namalwa
  mean IC40 (concentration required to reach 40% inhibition of cell proliferation): 49.25 nM
Raji
  mean IC40 (concentration required to reach 40% inhibition of cell proliferation): 221.09 nM
Ramos
  mean IC40 (concentration required to reach 40% inhibition of cell proliferation): 66.08 nM
ARH-77
  mean IC40 (concentration required to reach 40% inhibition of cell proliferation): 207.27 nM
RPMI 8226
  mean IC40 (concentration required to reach 40% inhibition of cell proliferation): 37.59 nM

## O=C(CCCCCCC(=O)Nc1ccccc1)NO [SAHA, suberoylanilide hydroxamic acid]
[2]
  concentration when induction of acetylation of histone H3 and H4 and induction of p21waf1,cip1 is observed: 3000 nM
[3]
  concentration when start of induction of acetylation of tubulin and induction of Hsp 70 is observed: 100 nM
